Laboratory results: patent US6642411B1, “Compounds and compositions for delivering active agents” (Emisphere Technologies, Inc., priority 1998, dated 2003)
≈ marks a conversion by molar mass, not a printed value. Read-outs that look alike come from different tables or passages of the source.

Assay: Solubility of the carrier compound
Format: physicochemical

solubility (aqueous NaOH solution, aqueous buffer, thermodynamic from solid, 200 mg+350 μl 2N NaOH+650 μl H2O, pH 7.67, read-out: Solubility) [mg/mL]	solubility (clear solution, pH=6.85) [mg/mL]	SMILES
200 (≈ 701 mM)	–	CC(C(=O)O)c1ccc(NC(=O)c2ccccc2O)cc1 (centres unmarked) [Example 1, 2-(4-(N-salicyloyl)aminophenyl)propionic acid]
–	200	CC(C(=O)[O-])c1ccc(NC(=O)c2ccccc2O)cc1.[Na+] (centres unmarked) [Example 2, sodium 2-(4-(N-salicyloyl)aminophenyl)propionate]
